Test results published in PMC6123363, “Functional Characterization of c-di-GMP Signaling-Related Genes in the Probiotic Lactobacillus acidophilus” (Frontiers in Microbiology, 2018).

Legend:
MBP-PdeA = target: T1, MBP-PdeA (Lactobacillus acidophilus, UniProt Q5FJ85); assay: PDE assay, reversed-phase HPLC; type: biochemical; settings: 10 μM enzyme, 100 μM c-di-GMP, 5 mM MgCl2, 50 mM Tris-HCl pH 9.35, 37 °C
T1 construct: gene LBA1414; pdeA (EAL domain only protein), MBP fusion in pMAL-c2, expressed in E. coli BL21, amylose column; MBP kept
T1 sequence (Q5FJ85 1-231): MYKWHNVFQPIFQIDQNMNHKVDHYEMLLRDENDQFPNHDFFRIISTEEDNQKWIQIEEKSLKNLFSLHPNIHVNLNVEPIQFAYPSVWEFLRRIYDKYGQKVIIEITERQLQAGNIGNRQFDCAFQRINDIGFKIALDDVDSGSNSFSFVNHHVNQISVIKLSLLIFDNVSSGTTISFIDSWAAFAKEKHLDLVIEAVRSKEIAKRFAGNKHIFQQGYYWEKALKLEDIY

[1] = target: T2, MBP-EALpdeB (EAL domain of PdeB) (Lactobacillus acidophilus, UniProt Q5FJ84); assay: equilibrium dialysis with HPLC quantification; type: binding
T2 construct: gene LBA1415; EAL domain (residues 32-267, ELLLR motif, no N-terminal membrane targeting signal), MBP fusion in pMAL-c2, expressed in E. coli BL21, amylose column; MBP kept
T2 sequence (Q5FJ84 32-267): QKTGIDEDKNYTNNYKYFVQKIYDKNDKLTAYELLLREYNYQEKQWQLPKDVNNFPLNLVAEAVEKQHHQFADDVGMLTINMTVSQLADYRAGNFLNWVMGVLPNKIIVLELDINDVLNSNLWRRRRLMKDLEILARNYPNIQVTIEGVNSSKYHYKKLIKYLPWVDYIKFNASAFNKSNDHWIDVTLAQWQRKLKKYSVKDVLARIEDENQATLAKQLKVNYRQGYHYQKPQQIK

SMILES | PDE assay, reversed-phase HPLC (MBP-PdeA) | Kd [1]
Nc1nc2c(ncn2[C@@H]2O[C@H](COP(=O)(O)O[C@H]3[C@@H](O)[C@H](n4cnc5c(=O)[nH]c(N)nc54)O[C@@H]3COP(=O)(O)O)[C@@H](O)[C@H]2O)c(=O)[nH]1 [pGpG] | The PdeA enzymatic reaction product corresponded to the retention time of the pGpG | –
Nc1nc2c(ncn2[C@@H]2O[C@@H]3COP(=O)(O)O[C@H]4[C@@H](O)[C@H](n5cnc6c(=O)[nH]c(N)nc65)O[C@@H]4COP(=O)(O)O[C@H]3[C@H]2O)c(=O)[nH]1 [c-di-GMP] | PdeA was able to hydrolyze c-di-GMP to pGpG | 4.87 ± 0.89 µM
